Measurements: patent US20260375094A1, “Disinfectant Compositions” (ARXADA, LLC, priority 2022, published 2026)

Tests used:
Type in all cases: cell-based
Pseudomonas aeruginosa [1] = test: glass slide carrier spray disinfection test, Pseudomonas aeruginosa; conditions: 75 ppm antimicrobial agent, no polyethertriamine; 10 minutes contact time
Method: (§1) In this example, Pseudomonas aeruginosa or Staphylococcus aureus were dried on glass slides and then sprayed with disinfectant compositions prepared according to the present disclosure. The organism load on the slide was controlled between 5 and 6 log 10 (equals to 10^5 to 10^6 organisms). The spray bottle containing the disinfectant was placed 4 inches away from the carrier and five sprays were applied. After 10 minutes contact time, the carriers are aseptically transferred to 20 ml of letheen broth (neutralizer/growth media). These letheen broth tubes with the carriers are then incubated at 37±1 °C for 48 hours. After 48 hours, a cloudy letheen tube indicates growth or failure and a clear tube indicates no growth or pass.
(§2) The polyethertriamine used was JEFFAMINE T403 polyetheramine obtained from Huntsman Corporation of Houston, Texas.
(§3) In the example below, the alkyl dimethyl benzyl ammonium chloride contained a mixture of 50% by weight C14, 10% by weight C16, and 40% by weight C12 dimethyl benzyl ammonium chloride.
(§4) In the table below, PHMB stands for polyhexamethylene biguanide.

Staphylococcus aureus = test: glass slide carrier spray disinfection test, Staphylococcus aureus; conditions: 75 ppm antimicrobial agent, no polyethertriamine; 10 minutes contact time
Method: as §1, §2, §3, §4

[2] = system: Pseudomonas aeruginosa (ATCC 15442); test: EN1276 suspension test, dirty condition, 5 minutes; conditions: for Log Reduction: no polyethertriamine, with 5.00 disodium cocoamphodiproprionate, 15.00 isopropyl alcohol, 5 minutes
Method: In particular, varying amounts of para-chloro-metal-xylenol (PCMX) were combined and tested with and without different adjuvants of the present disclosure.
In this example, the same polyethertriamine described in Example No. 1 was used. The disodium cocoamphodiproprionate used was Amphoterge® K-2 obtained from Arxada AG. The methylglycinediacetic acid used was Trilon® M obtained from BASF Corporation.
In tables 9 and 10, antimicrobial efficacy was evaluated according to the EU Standard EN1276 method against Pseudomonas aeruginosa (ATCC 15442) for a contact time of 5 minutes in dirty condition. Test compounds were diluted in hardwater with a total hardness of 375 ppm as CaCo3 pursuant to the Organization for Economic Co-operation and Development (OECD) and used within 2 hours of preparation. The test inoculum was adjusted to the concentration of 1.5-5×10^8 colony forming units (CFU) in Tryptone Sodium Chloride buffer (TSC, 1.0 g tryptone, 8.5 g NaCl, 1 L H2O). For the challenge test, 1 ml of the test inocula was mixed with 1 ml of Bovine Serum Albumin (final concentration 3 g/L) and held for 2 minutes before it was exposed to 8 mL of test compound. The test suspension was then mixed and held for the contact time of 5 minutes at 20±1 °C. At the end of the exposure time, 1 ml of the test mixture was transferred to a tube containing 9 ml neutralizing solution and held for 5 minutes before it was serially diluted and plated onto TSA plates. The plates were incubated at 37 °C for 48 hours before the numbers of CFU per ml in the test suspensions relative to the controls were calculated. Test and control procedures were performed in duplicate and carried out in parallel with the neutralization validation controls, as described in the standard.

Klebsiella pneumoniae = test: modified EN 1040 suspension test, Klebsiella pneumoniae; conditions: 1.25 ppm antimicrobial agent, 60 seconds
Source text: (§5) In particular, various antimicrobial agents and mixtures were combined and tested with and without the adjuvant of the present disclosure.
(§6) In this example, the same polyethertriamine described in Example No. 1 was used. In addition, the alkyl dimethyl benzyl ammonium chloride was the same mix as described in Example No. 1. The alkyl dimethyl ammonium chloride mix used in the samples below contained 40% by weight of octyl decyl dimethyl ammonium chloride, 16% by weight dioctyl dimethyl ammonium chloride, and 24% by weight of didecyl dimethyl ammonium chloride.
(§7) The modified EN 1040 suspension test was used to determine the efficacy of the test systems. The testing was performed for a contact time of 60 seconds in comparison to an identical composition not containing the adjuvant but containing the antimicrobial agent at the same concentration. Bacteria were stored at −80 °C using Microbank™ beads (Prolab diagnostics). Cultures were prepared in 250 mL baffled shake flasks with 25 mL of Tryptic Soy Broth (TSB) using one bead. After 18+/−8 hours incubation at 37 °C and 150 rpm, the inocula are prepared for the test.
(§8) The inocula were prepared by diluting the bacteria to 2.5×10^6 CFU/mL in phosphate buffered saline (PBS). Test compounds are prepared in DI water. Three levels of each test compound were prepared by serial two-fold dilution in the same hardwater. For each biological repetition, the test compounds were tested at 3 levels in quadruplicate with one quadruplicate control with no test compound.
The varying compositions were then mixed with the inocula in an 80:20 (test composition: inocula) ratio. After 60 seconds, the test composition/inocula mixture was neutralized by a 10-fold dilution in Letheen broth. […]
(§9) The average log reduction was calculated using the six dilutions.
Various different formulations were tested against Klebsiella pneumoniae and Pseudomonas aeruginosa. […] The average log reduction was recorded in addition to the difference in log reduction between the formulation containing the polyethertriamine and the formulation not containing the polyethertriamine.

Pseudomonas aeruginosa [3] = test: modified EN 1040 suspension test, Pseudomonas aeruginosa; conditions: 1.25 ppm antimicrobial agent, 60 seconds
Source text: as §5, §6, §7, §8
The varying compositions were then mixed with the inocula in an 80:20 (test composition: inocula) ratio. After 60 seconds, the test composition/inocula mixture was neutralized by a 10-fold dilution in Letheen broth. After neutralization of the test composition/inocula mixture, five more 10-fold dilutions were made. The six dilutions were incubated at 35 °C for 24 h+/−1 h. Neutralization was verified separately.
as §9
Various different formulations were tested against Klebsiella pneumoniae and Pseudomonas aeruginosa. The antimicrobial concentrations were tested at 5 ppm, 2.5 ppm, and 1.25 ppm. The antimicrobial blends were mixed at the indicated ratios by weight percent. The formulations were tested with and without the polyethertriamine (PEA). The polyethertriamine was added at weight ratios of 20:1, 40:1, 80:1, and 200:1 with respect to the antimicrobial agent(s). The average log reduction was recorded in addition to the difference in log reduction between the formulation containing the polyethertriamine and the formulation not containing the polyethertriamine.

SMILES	# Fails out of 10 (Pseudomonas aeruginosa [1])	# Fails out of 10 (Staphylococcus aureus)	Log Reduction ([2]; 0.50% para-chloro-meta-xylenol, 1:5 dilution (1000 ppm)) [log]	Log Reduction ([2]; 1.00% para-chloro-meta-xylenol, 1:5 dilution (2000 ppm)) [log]	performance in presence of the adjuvants ([2]; Example No. 3)	Average Log Kill (Klebsiella pneumoniae; 0 ppm PEA) [log]	Delta Log Kill (Klebsiella pneumoniae; 250 ppm PEA vs 0) [log]	Average Log Kill (Klebsiella pneumoniae; 250 ppm PEA) [log]	Average Log Kill (Pseudomonas aeruginosa [3]; 0 ppm PEA) [log]	Delta Log Kill (Pseudomonas aeruginosa [3]; 100 ppm PEA vs 0) [log]	Average Log Kill (Pseudomonas aeruginosa [3]; 100 ppm PEA) [log]	Delta Log Kill (Pseudomonas aeruginosa [3]; 250 ppm PEA vs 0) [log]	Average Log Kill (Pseudomonas aeruginosa [3]; 250 ppm PEA) [log]
N=C(NCCCCCCNC(=N)NC(=N)Nc1ccc(Cl)cc1)NC(=N)Nc1ccc(Cl)cc1 [Chlorohexidine]	10 out of 10	10 out of 10											
Cc1cc(O)cc(C)c1Cl [Para-chloro-meta-xylenol, 4-chloro-3,5-dimethylphenol]			0.83	2.56	dramatically improved the performance								
CCCCCCCCCC[N+](C)(C)CCCCCCCCCC.[Cl-] [didecyl dimethyl ammonium chloride]	9 out of 10	1 out of 10				0.46	1.38	1.83	1.58	0.92	2.50	0.29	1.88
